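The compound was tested at five concentrations on cells cultured in 96-well plates, with a 48-hour exposure period. GI50: concentration for 50% inhibition of growth.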 Calls of active or inactive are those of the source. No stated cut-off is given here; in the data, active = GI50 up to about 1.1 µM and inactive = higher.
What was measured:
Test in all cases: DTP human tumour cell line panel, 48 h
BT-549 = tested on: BT-549
SF-268 = tested on: SF-268
SR = tested on: SR
SF-295 = tested on: SF-295
KM12 = tested on: KM12
MDA-MB-231 = tested on: MDA-MB-231
HT-29 = tested on: HT-29
Malme-3M = tested on: Malme-3M
SNB-75 = tested on: SNB-75
SK-MEL-2 = tested on: SK-MEL-2
TK-10 = tested on: TK-10
MCF7 = tested on: MCF7
HL-60 = tested on: HL-60
A549 = tested on: A549
NCI-H460 = tested on: NCI-H460
OVCAR-3 = tested on: OVCAR-3
SNB-19 = tested on: SNB-19
M14 = tested on: M14
U-251 = tested on: U-251
Hs-578T = tested on: Hs-578T

Row | SMILES | GI50 (BT-549) | GI50 (SF-268) | GI50 (SR) | GI50 (SF-295) | GI50 (KM12) | GI50 (MDA-MB-231) | GI50 (HT-29) | GI50 (Malme-3M) | GI50 (SNB-75) | GI50 (SK-MEL-2) | GI50 (TK-10) | GI50 (MCF7) | GI50 (HL-60) | GI50 (A549) | GI50 (NCI-H460) | GI50 (OVCAR-3) | GI50 (SNB-19) | GI50 (M14) | GI50 (U-251) | GI50 (Hs-578T)
1 | CCOC(=O)C(NC(=O)c1ccccc1)(N1CCN(c2cc3c(cc2F)c(=O)c(C(=O)O)cn3CC)CC1)C(F)(F)F (stereo not given) | 35.9 µM (inactive) | 40.9 µM (inactive) | 27.2 µM (inactive) | 37.5 µM (inactive) | 25.9 µM (inactive) | 23.6 µM (inactive) | 29 µM (inactive) | 22 µM (inactive) | 26.1 µM (inactive) | 31.5 µM (inactive) | 29.4 µM (inactive) | 26.6 µM (inactive) | 20 µM (inactive) | 39.9 µM (inactive) | 32.1 µM (inactive) | 31.3 µM (inactive) | 29.9 µM (inactive) | 51.1 µM (inactive) | 41.2 µM (inactive) | 43.3 µM (inactive)
2 | COC(=O)C1CCC(=O)N1C(c1ccccc1)c1ccc(OC)c(OC)c1 (stereo not given) | > 100 µM (inactive) | > 100 µM (inactive) | > 100 µM (inactive) | > 100 µM (inactive) | > 100 µM (inactive) | > 100 µM (inactive) | > 100 µM (inactive) | > 100 µM (inactive) | 15.7 µM (inactive) | > 100 µM (inactive) | > 100 µM (inactive) | > 100 µM (inactive) | > 100 µM (inactive) | > 100 µM (inactive) | > 100 µM (inactive) | > 100 µM (inactive) | > 100 µM (inactive) | > 100 µM (inactive) | > 100 µM (inactive) | > 100 µM (inactive)
3 | CC(C)(CN1CCCCC1)C(/C=C/c1ccccc1)=N\NC(=O)N/N=C(/C=C/c1ccccc1)C(C)(C)CN1CCCCC1 | 1.77 µM (inactive) | 3.24 µM (inactive) | 0.508 µM (active) | 1.69 µM (inactive) | 2 µM (inactive) | 1.36 µM (inactive) | 1.07 µM (active) | 2.04 µM (inactive) | 1.38 µM (inactive) | 2.01 µM (inactive) | 1.75 µM (inactive) | 1.71 µM (inactive) | 1.08 µM (active) | 2.43 µM (inactive) | 1.38 µM (inactive) | 2.34 µM (inactive) | 1.91 µM (inactive) | 1.71 µM (inactive) | 1.63 µM (inactive) | 2.67 µM (inactive)
